What was measured:
Type in all cases: functional
[1] = system: Staphylococcus epidermidis; test: Antimicrobial activity against methicillin-resistant Staphylococcus epidermidis assessed as resistant isolates by broth microdilution method
[2] = system: Staphylococcus epidermidis; test: Antimicrobial activity against methicillin-resistant Staphylococcus epidermidis isolated from ICU patient urine assessed as resistant isolates by broth microdilution method
Enterococcus sp. [3] = test: Antimicrobial activity against vancomycin-resistant Enterococcus sp. isolated from ICU patient blood assessed as resistant isolates by broth microdilution method
Staphylococcus aureus [4] = test: Antimicrobial activity against methicillin-susceptible Staphylococcus aureus assessed as resistant isolates by broth microdilution method
Staphylococcus aureus [5] = test: Antimicrobial activity against methicillin-resistant Staphylococcus aureus isolated from ICU patient urine assessed as resistant isolates by broth microdilution method
Staphylococcus aureus [6] = test: Antimicrobial activity against methicillin-susceptible Staphylococcus aureus isolated from ICU patient respiratory tract assessed as resistant isolates by broth microdilution method
Staphylococcus aureus [7] = test: Antimicrobial activity against methicillin-resistant Staphylococcus aureus isolated from ICU patient wound assessed as resistant isolates by broth microdilution method
Staphylococcus aureus [8] = test: Antimicrobial activity against methicillin-susceptible Staphylococcus aureus isolated from ICU patient blood assessed as resistant isolates by broth microdilution method
[9] = system: Staphylococcus epidermidis; test: Antimicrobial activity against methicillin-susceptible Staphylococcus epidermidis isolated from ICU patient blood assessed as resistant isolates by broth microdilution method
[10] = system: Staphylococcus epidermidis; test: Antimicrobial activity against methicillin-resistant Staphylococcus epidermidis isolated from ICU patient wound assessed as resistant isolates by broth microdilution method
[11] = system: Staphylococcus epidermidis; test: Antimicrobial activity against methicillin-susceptible Staphylococcus epidermidis assessed as resistant isolates by broth microdilution method
Enterococcus sp. [12] = test: Antimicrobial activity against vancomycin-resistant Enterococcus sp. assessed as resistant isolates by broth microdilution method
Staphylococcus aureus [13] = test: Antimicrobial activity against methicillin-resistant Staphylococcus aureus isolated from ICU patient blood assessed as resistant isolates by broth microdilution method
Enterococcus sp. [14] = test: Antimicrobial activity against vancomycin-resistant Enterococcus sp. isolated from ICU patient respiratory tract assessed as resistant isolates by broth microdilution method
Staphylococcus aureus [15] = test: Antimicrobial activity against methicillin-resistant Staphylococcus aureus assessed as resistant isolates by broth microdilution method
[16] = system: Staphylococcus epidermidis; test: Antimicrobial activity against methicillin-resistant Staphylococcus epidermidis isolated from ICU patient blood assessed as resistant isolates by broth microdilution method
[17] = system: Staphylococcus epidermidis; test: Antimicrobial activity against methicillin-susceptible Staphylococcus epidermidis isolated from ICU patient wound assessed as resistant isolates by broth microdilution method
Enterococcus sp. [18] = test: Antimicrobial activity against vancomycin-resistant Enterococcus sp. isolated from ICU patient urine assessed as resistant isolates by broth microdilution method
Staphylococcus aureus [19] = test: Antimicrobial activity against methicillin-susceptible Staphylococcus aureus isolated from ICU patient urine assessed as resistant isolates by broth microdilution method
[20] = system: Staphylococcus epidermidis; test: Antimicrobial activity against methicillin-susceptible Staphylococcus epidermidis isolated from ICU patient urine assessed as resistant isolates by broth microdilution method
Staphylococcus aureus [21] = test: Antimicrobial activity against methicillin-susceptible Staphylococcus aureus isolated from ICU patient wound assessed as resistant isolates by broth microdilution method
Enterococcus sp. [22] = test: Antimicrobial activity against vancomycin-resistant Enterococcus sp. isolated from ICU patient wound assessed as resistant isolates by broth microdilution method
Staphylococcus aureus [23] = test: Antimicrobial activity against methicillin-resistant Staphylococcus aureus isolated from ICU patient respiratory tract assessed as resistant isolates by broth microdilution method
Escherichia coli [24] = test: Antimicrobial activity against CTX-M ESBL producing Escherichia coli isolated from ICU patient respiratory tract assessed as resistant isolates by broth microdilution method
[25] = system: Staphylococcus epidermidis; test: Antimicrobial activity against methicillin-susceptible Staphylococcus epidermidis isolated from ICU patient respiratory tract assessed as resistant isolates by broth microdilution method
Pseudomonas aeruginosa [26] = test: Antimicrobial activity against carbapenem-resistant Pseudomonas aeruginosa assessed as resistant isolates by broth microdilution method
Pseudomonas aeruginosa [27] = test: Antimicrobial activity against carbapenem-resistant Pseudomonas aeruginosa isolated from ICU patient wound assessed as resistant isolates by broth microdilution method
Escherichia coli [28] = test: Antimicrobial activity against CTX-M ESBL producing Escherichia coli isolated from ICU patient blood assessed as resistant isolates by broth microdilution method
Pseudomonas aeruginosa [29] = test: Antimicrobial activity against carbapenem-resistant Pseudomonas aeruginosa isolated from ICU patient respiratory tract assessed as resistant isolates by broth microdilution method
Pseudomonas aeruginosa [30] = test: Antimicrobial activity against carbapenem-resistant Pseudomonas aeruginosa isolated from ICU patient urine assessed as resistant isolates by broth microdilution method
Pseudomonas aeruginosa [31] = test: Antimicrobial activity against carbapenem-resistant Pseudomonas aeruginosa isolated from ICU patient blood assessed as resistant isolates by broth microdilution method
Escherichia coli [32] = test: Antimicrobial activity against CTX-M ESBL producing Escherichia coli assessed as resistant isolates by broth microdilution method
Escherichia coli [33] = test: Antimicrobial activity against CTX-M ESBL producing Escherichia coli isolated from ICU patient urine assessed as resistant isolates by broth microdilution method
Escherichia coli [34] = test: Antimicrobial activity against CTX-M ESBL producing Escherichia coli isolated from ICU patient wound assessed as resistant isolates by broth microdilution method
Streptococcus pneumoniae [35] = test: Antimicrobial activity against penicillin-resistant Streptococcus pneumoniae isolated from ICU patient blood assessed as resistant isolates by broth microdilution method
Streptococcus pneumoniae [36] = test: Antimicrobial activity against penicillin-resistant Streptococcus pneumoniae isolated from ICU patient respiratory tract assessed as resistant isolates by broth microdilution method
Streptococcus pneumoniae [37] = test: Antimicrobial activity against penicillin-resistant Streptococcus pneumoniae isolated from ICU patient wound assessed as resistant isolates by broth microdilution method
Streptococcus pneumoniae [38] = test: Antimicrobial activity against penicillin-resistant Streptococcus pneumoniae assessed as resistant isolates by broth microdilution method

`CCCCCCCCCC(=O)N[C@@H](Cc1c[nH]c2ccccc12)C(=O)N[C@H](CC(N)=O)C(=O)N[C@@H](CC(=O)O)C(=O)N[C@@H]1C(=O)NCC(=O)N[C@@H](CCCN)C(=O)N[C@@H](CC(=O)O)C(=O)N[C@H](C)C(=O)N[C@@H](CC(=O)O)C(=O)NCC(=O)N[C@H](CO)C(=O)N[C@@H]([C@H](C)CC(=O)O)C(=O)N[C@@H](CC(=O)c2ccccc2N)C(=O)O[C@@H]1C` gave an Activity [1] of 0%, an Activity [2] of 0% and an Activity (Enterococcus sp. [3]) of 0%. It also gave an Activity (Staphylococcus aureus [4]) of 0%, an Activity (Staphylococcus aureus [5]) of 0% and an Activity (Staphylococcus aureus [6]) of 0%. It also gave an Activity (Staphylococcus aureus [7]) of 0%, an Activity (Staphylococcus aureus [8]) of 0% and an Activity [9] of 0%. For the same compound, the Activity [10] was 0%, the Activity [11] was 0% and the Activity (Enterococcus sp. [12]) was 0%. For the same compound, the Activity (Staphylococcus aureus [13]) was 0%, the Activity (Enterococcus sp. [14]) was 0% and the Activity (Staphylococcus aureus [15]) was 0%. The Activity [16] was 0%, the Activity [17] was 0% and the Activity (Enterococcus sp. [18]) was 0%. For the same compound, the Activity (Staphylococcus aureus [19]) was 0%, the Activity [20] was 0% and the Activity (Staphylococcus aureus [21]) was 0%. It also gave an Activity (Enterococcus sp. [22]) of 0% and an Activity (Staphylococcus aureus [23]) of 0%.
In the case of `Cc1nnc(SCC2=C(C(=O)O)N3C(=O)[C@@H](NC(=O)Cn4cnnn4)[C@H]3SC2)s1` [CEFAZOLIN], the Activity [1] is reported as 100%, the Activity (Escherichia coli [24]) is reported as 11.5% and the Activity [2] is reported as 100%. For the same compound, the Activity (Staphylococcus aureus [4]) was 0%, the Activity (Staphylococcus aureus [5]) was 100% and the Activity (Staphylococcus aureus [6]) was 0%. For the same compound, the Activity (Staphylococcus aureus [7]) was 100%, the Activity (Staphylococcus aureus [8]) was 0% and the Activity [25] was 0%. The Activity (Pseudomonas aeruginosa [26]) was 6.2%, the Activity [9] was 0% and the Activity (Pseudomonas aeruginosa [27]) was 7.7%. For the same compound, the Activity [10] was 100%, the Activity (Escherichia coli [28]) was 21.9% and the Activity (Pseudomonas aeruginosa [29]) was 4.9%. It also gave an Activity [11] of 0%, an Activity (Staphylococcus aureus [13]) of 100% and an Activity (Pseudomonas aeruginosa [30]) of 7.8%. It also gave an Activity (Staphylococcus aureus [15]) of 100%, an Activity [16] of 100% and an Activity [17] of 0%. The Activity (Staphylococcus aureus [19]) was 0%, the Activity [20] was 0% and the Activity (Pseudomonas aeruginosa [31]) was 7.7%. It also gave an Activity (Escherichia coli [32]) of 20.1%, an Activity (Staphylococcus aureus [21]) of 0% and an Activity (Escherichia coli [33]) of 25.8%. The Activity (Escherichia coli [34]) was 8.6% and the Activity (Staphylococcus aureus [23]) was 100%.
Work on `CC[C@H]1OC(=O)[C@H](C)[C@@H](O[C@H]2C[C@@](C)(OC)[C@@H](O)[C@H](C)O2)[C@H](C)[C@@H](O[C@@H]2O[C@H](C)C[C@H](N(C)C)[C@H]2O)[C@](C)(OC)C[C@@H](C)C(=O)[C@H](C)[C@@H](O)[C@]1(C)O` [CLARITHROMYCIN] yielded an Activity [1] of 96%, an Activity [2] of 100% and an Activity (Enterococcus sp. [3]) of 68.6%. The Activity (Streptococcus pneumoniae [35]) was 13.2%, the Activity (Staphylococcus aureus [4]) was 20.1% and the Activity (Staphylococcus aureus [5]) was 100%. The Activity (Staphylococcus aureus [6]) was 19.5%, the Activity (Staphylococcus aureus [8]) was 16.1% and the Activity [9] was 74.6%. It also gave an Activity [10] of 94.1%, an Activity [11] of 77.4% and an Activity (Enterococcus sp. [12]) of 65.9%. The Activity (Enterococcus sp. [14]) was 61.5%, the Activity [16] was 100% and the Activity (Streptococcus pneumoniae [36]) was 16.4%. It also gave an Activity [17] of 79.2%, an Activity (Enterococcus sp. [18]) of 70.1% and an Activity (Staphylococcus aureus [19]) of 30%. For the same compound, the Activity [20] was 100%, the Activity (Streptococcus pneumoniae [37]) was 16.7% and the Activity (Streptococcus pneumoniae [38]) was 15.9%. For the same compound, the Activity (Staphylococcus aureus [21]) was 23.9% and the Activity (Enterococcus sp. [22]) was 60.3%.
Compound `CCC[C@@H]1C[C@@H](C(=O)N[C@@H]([C@H]2O[C@H](SC)[C@H](O)[C@@H](O)[C@H]2O)[C@H](C)Cl)N(C)C1` [CLINDAMYCIN] has an Activity [1] of 92%, an Activity [2] of 100% and an Activity (Streptococcus pneumoniae [35]) of 2.6%. The Activity (Staphylococcus aureus [4]) was 4.4%, the Activity (Staphylococcus aureus [5]) was 100% and the Activity (Staphylococcus aureus [6]) was 4.3%. For the same compound, the Activity (Staphylococcus aureus [7]) was 81.5%, the Activity (Staphylococcus aureus [8]) was 4.6% and the Activity [9] was 43.6%. It also gave an Activity [10] of 88.2%, an Activity [11] of 54.8% and an Activity (Staphylococcus aureus [13]) of 79.6%. The Activity (Staphylococcus aureus [15]) was 76.1%, the Activity [16] was 100% and the Activity (Streptococcus pneumoniae [36]) was 6.4%. The Activity [17] was 70.8%, the Activity (Staphylococcus aureus [19]) was 10% and the Activity [20] was 100%. The Activity (Streptococcus pneumoniae [37]) was 0%, the Activity (Streptococcus pneumoniae [38]) was 5.6% and the Activity (Staphylococcus aureus [21]) was 3.5%. It also gave an Activity (Staphylococcus aureus [23]) of 72.9%.
In the case of `CC(=O)NC[C@H]1CN(c2ccc(N3CCOCC3)c(F)c2)C(=O)O1` [LINEZOLID], the Activity [1] is reported as 0%, the Activity [2] is reported as 0% and the Activity (Enterococcus sp. [3]) is reported as 2.9%. The Activity (Streptococcus pneumoniae [35]) was 0%, the Activity (Staphylococcus aureus [4]) was 0% and the Activity (Staphylococcus aureus [5]) was 0%. For the same compound, the Activity (Staphylococcus aureus [6]) was 0%, the Activity (Staphylococcus aureus [7]) was 0% and the Activity (Staphylococcus aureus [8]) was 0%. It also gave an Activity [9] of 0%, an Activity [10] of 0% and an Activity [11] of 0%. It also gave an Activity (Enterococcus sp. [12]) of 1.8%, an Activity (Staphylococcus aureus [13]) of 0% and an Activity (Enterococcus sp. [14]) of 0%. For the same compound, the Activity (Staphylococcus aureus [15]) was 0%, the Activity [16] was 0% and the Activity (Streptococcus pneumoniae [36]) was 0%. For the same compound, the Activity [17] was 0%, the Activity (Enterococcus sp. [18]) was 1.5% and the Activity (Staphylococcus aureus [19]) was 0%. The Activity [20] was 0%, the Activity (Streptococcus pneumoniae [37]) was 0% and the Activity (Streptococcus pneumoniae [38]) was 0%. For the same compound, the Activity (Staphylococcus aureus [21]) was 0%, the Activity (Enterococcus sp. [22]) was 1.6% and the Activity (Staphylococcus aureus [23]) was 0%.
Compound `COc1c(N2C[C@@H]3CCCN[C@@H]3C2)c(F)cc2c(=O)c(C(=O)O)cn(C3CC3)c12` [MOXIFLOXACIN] has an Activity [1] of 96%, an Activity [2] of 100% and an Activity (Streptococcus pneumoniae [35]) of 0%. It also gave an Activity (Staphylococcus aureus [4]) of 6.4%, an Activity (Staphylococcus aureus [5]) of 100% and an Activity (Staphylococcus aureus [6]) of 5.8%. For the same compound, the Activity (Staphylococcus aureus [7]) was 88.9%, the Activity (Staphylococcus aureus [8]) was 6.9% and the Activity [9] was 34.6%. The Activity [10] was 100%, the Activity [11] was 41.7% and the Activity (Staphylococcus aureus [13]) was 89.8%. The Activity (Staphylococcus aureus [15]) was 90.1%, the Activity [16] was 83.3% and the Activity (Streptococcus pneumoniae [36]) was 1.6%. The Activity [17] was 50%, the Activity (Staphylococcus aureus [19]) was 15% and the Activity [20] was 80%. It also gave an Activity (Streptococcus pneumoniae [37]) of 0%, an Activity (Streptococcus pneumoniae [38]) of 1.3% and an Activity (Staphylococcus aureus [21]) of 7.1%. For the same compound, the Activity (Staphylococcus aureus [23]) was 91.5%.
